Results reported in US20020137154A1, “Methods for improving cell growth and alcohol production during fermentation” (priority 2000, published 2002).

Key:
Format in all cases: cell-based
[1] = system: recombinant Escherichia coli KO11; assay: Batch fermentation of E. coli KO11 in 1% CSL medium and xylose with nutrient additives: ethanol production and cell growth; details: additive 2 g/L unless indicated; for activity at 2000 µg/mL: Escherichia coli
Description: (§1) Two types of media were tested: 1% CSL and Luria broth (LB). Each contained 97 g of either xylose or glucose per liter. Luria Broth consists of, per liter: 10 g Difco® Tryptone, 5 g Difco® Yeast Extract and 5 g NaCl. The 1% CSL medium consists of Corn Steep Liquor (1% w/v) plus mineral salts (mineral salts per liter: 1 g of KH2PO4. 0.5 g of K2HPO4, 3.1 g of (NH4)2SO4, 0.4 g of MgCl2·6H2), and 20 mg FeCl3·6H2O).
(§2) Luria Broth was prepared by autoclaving a 2× nutrient stock containing, per liter: 20 g Difco® Tryptone, 10 g Difo® Yeast Extract, and 10 g NaCl. Sugars (xylose or glucose) were autoclaved separately. A 1% CSL medium was prepared as follows: Commercial Corn Steep Liquor (CSL; 50% dry weight/50% water) was diluted with tap water to make a 20X stock containing 100 g dry weight of Corn Steep Liquor/L and was adjusted to pH 7.2 with NaOH (50%). After sterilization by autoclaving, the 20X CSL stock was clarified by centrifugation at 5000×g for 10 minutes. Magnesium was added as a 100× stock solution (40 g/L MgCl2·6H2O). Iron was added as a 1000× stock solution made by dissolving 20 g FeCl3·6H2O in 175 mL of HCl and adjusting to 1 L with sterile water. Nitrogen, sulfur and phosphorus were added using a 20× stock solution containing the following (per liter): 20 g of KH2PO4, 10 g of K2HPO4 and 62 g of (NH4)2SO4. Stock solutions containing minerals were sterilized separately by autoclaving. Final media was prepared by adding 750 mL of water to 1 L bottle containing 100 g of xylose or glucose.
Inocula were grown in same media used for fermentation and were prepared as follows. Three colonies from a fresh plate were used to inoculate seed cultures: 250-mL flask containing 100 mL medium. These cultures were grown with agitation (120 rpm) for 12-16 hours at 35° C. to a final OD550nm of approximately 2.0-2.5. Cells were harvested by centrifugation at 5000×g for 5 minutes, and resuspended in fresh media to an OD550nm of 0.1. The resulting suspension was distributed into 500-mL beakers containing 345 ml each of fermentation medium. Acetaldehyde was added as indicated. Batch fermentations (35° C., 100 rpm) were maintained at pH 6.5 by the automatic addition of 2N KOH. Cell mass, ethanol, and base addition (2N KOH) were recorded during 96 hours of incubation. […]
(§3) Additives (e.g., as listed in Table 1) were dissolved in 5 mL di-H2O. Solutions with pH lower than 5 were neutralized to pH 6.5 with 2N KOH. Nutritional supplements were then filter-sterilized (0.45 μm filter disk) directly into the fermentation vessel containing the culture. The final concentration of all additives in the culture medium was 2 g/L unless otherwise indicated.
(§4) Cell mass was estimated by measuring OD550nm using Baush & Lomb® Spectronic 70 spectrophotometer. […] Ethanol was measured by gas chromatography using a Varian® 3400 CX gas chromatograph with 1-propanol as an internal standard.
(§5) Tables 1, 3, and 5 show time to completion of fermentation, ethanol production, and volumetric productivity of the fermentation for all concentrations of the compound and the control. Maximum ethanol production is shown in grams/liter (g/L). The ethanol yield is shown in grams of ethanol/grams of added sugar. Maximum volumetric productivity is shown in grams ethanol/(liter)(hour). The average productivity is calculated form the start of fermentation to the completion of fermentation is grams ethanol/(liter)hour).
Tables 2, 4, and 6 show the initial growth of the cells (OD taken after the first 24 hours of fermentation) and the maximum cell density (the time which culture reaches the maximum OD value). […]

[2] = system: recombinant Escherichia coli KO11; assay: Batch fermentation of E. coli KO11 in 1% CSL medium and glucose with nutrient additives: ethanol production and cell growth; details: additive 2 g/L unless indicated; for activity at 2000 µg/mL: Escherichia coli
Description: as §1, §2
(§6) Inocula were grown in same media used for fermentation and were prepared as follows. Three colonies from a fresh plate were used to inoculate seed cultures: 250-mL flask containing 100 mL medium. These cultures were grown with agitation (120 rpm) for 12-16 hours at 35° C. to a final OD550nm of approximately 2.0-2.5. Cells were harvested by centrifugation at 5000×g for 5 minutes, and resuspended in fresh media to an OD550nm of 0.1. The resulting suspension was distributed into 500-mL beakers containing 345 ml each of fermentation medium. Acetaldehyde was added as indicated. Batch fermentations (35° C., 100 rpm) were maintained at pH 6.5 by the automatic addition of 2N KOH. Cell mass, ethanol, and base addition (2N KOH) were recorded during 96 hours of incubation.
(§7) Equivalent amounts of distilled water were added instead of the acetaldehyde in control experiments.
as §3, §4, §5
(§8) Tables 2, 4, and 6 show the initial growth of the cells (OD taken after the first 24 hours of fermentation) and the maximum cell density (the time which culture reaches the maximum OD value).
(§9) Acetaldehyde was added to the fermentation medium at five different concentrations and time points. […] Where two additions are indicated, the first volume was added at the start of fermentation and the second was added after 8 hours of fermentation.

[3] = system: recombinant Escherichia coli KO11; assay: Batch fermentation of E. coli KO11 in Luria broth and xylose with nutrient additives: ethanol production and cell growth; details: LB+xylose
Description: as §1, §2, §6, §7, §3, §4, §5, §8, §9

For `CC(=O)C(=O)O` [Pyruvate, pyruvate], the “Ethanol Production Maximum” value ([1]; 1% CSL+xylose) was 44.42 g/L, the Ethanol yield ([1]; 1% CSL+xylose) was 0.457 grams of ethanol/grams of added sugar and the “Initial Growth (OD @ 24 h) OD” value ([1]; 1% CSL+xylose) was 4.11 OD. For the same compound, the “Maximum Cell Density Time” value ([1]; 1% CSL+xylose) was 96 h, the “Volumetric Productivity Average” value ([1]; 1% CSL+xylose) was 0.617 grams ethanol/(liter)(hour) and the “Volumetric Productivity Maximum” value ([1]; 1% CSL+xylose) was 0.792 grams ethanol/(liter)(hour). For the same compound, the activity at 2000 µg/mL ([1]; 24 h, 1% CSL+xylose, read-out: Initial Growth (OD @ 24 h) % Control) was 201%, the activity at 2000 µg/mL ([1]; read-out: Ethanol Production Maximum % Control, 1% CSL+xylose) was 148% and the activity at 2000 µg/mL ([1]; read-out: Volumetric Productivity Average % Control, 1% CSL+xylose) was 197%. The activity at 2000 µg/mL ([1]; read-out: Volumetric Productivity Maximum % Control, 1% CSL+xylose) was 215%, the activity at 2000 µg/mL ([1]; 1% CSL+xylose, read-out: Maximum Cell Density % Control) was 238% and the “Ethanol Production Maximum” value ([2]; 1% CSL+glucose) was 42.35 g/L. For the same compound, the Ethanol yield ([2]; 1% CSL+glucose) was 0.436 grams of ethanol/grams of added sugar, the “Initial Growth (OD @ 24 h) OD” value ([2]; 1% CSL+glucose) was 3.46 OD and the “Maximum Cell Density OD” value ([2]; 1% CSL+glucose) was 3.83 OD. For the same compound, the “Volumetric Productivity Average” value ([2]; 1% CSL+glucose) was 0.441 grams ethanol/(liter)(hour), the “Volumetric Productivity Maximum” value ([2]; 1% CSL+glucose) was 0.663 grams ethanol/(liter)(hour) and the activity at 2000 µg/mL ([2]; 24 h, 1% CSL+glucose, read-out: Initial Growth (OD @ 24 h) % Control) was 129%. It also gave an activity at 2000 µg/mL ([2]; read-out: Ethanol Production Maximum % Control, 1% CSL+glucose) of 114%, an activity at 2000 µg/mL ([2]; read-out: Volumetric Productivity Average % Control, 1% CSL+glucose) of 114% and an activity at 2000 µg/mL ([2]; read-out: Volumetric Productivity Maximum % Control, 1% CSL+glucose) of 129%. For the same compound, the activity at 2000 µg/mL ([2]; 1% CSL+glucose, read-out: Maximum Cell Density % Control) was 142%, the “Ethanol Production Maximum” value ([3]; 2 g) was 44.35 g/L and the “Ethanol Production Maximum % Control” value ([3]; 2 g) was 102.96%. The Ethanol yield ([3]; 2 g) was 0.457 grams of ethanol/grams of added sugar, the “Initial Growth (OD at 24 h) % Control” value ([3]; 2 g) was 113.09% and the “Initial Growth (OD at 24 h) OD” value ([3]; 2 g) was 11.30 OD. For the same compound, the “Maximum Cell Density % Control” value ([3]; 2 g) was 102.29%, the “Maximum Cell Density OD” value ([3]; 2 g) was 11.30 OD and the “Maximum Cell Density Time” value ([3]; 2 g) was 24 h. The Time to completion ([3]; 2 g) was 48 h, the “Volumetric Productivity Average” value ([3]; 2 g) was 0.924 grams ethanol/(liter)(hour) and the “Volumetric Productivity Average % Control” value ([3]; 2 g) was 102.96%. The “Volumetric Productivity Maximum” value ([3]; 2 g) was 1.284 grams ethanol/(liter)(hour), the “Volumetric Productivity Maximum % Control” value ([3]; 2 g) was 111.47% and the “Ethanol Production Maximum” value ([3]; 4 g) was 45.13 g/L. The “Ethanol Production Maximum % Control” value ([3]; 4 g) was 104.76%, the Ethanol yield ([3]; 4 g) was 0.465 grams of ethanol/grams of added sugar and the “Initial Growth (OD at 24 h) % Control” value ([3]; 4 g) was 114.64%. For the same compound, the “Initial Growth (OD at 24 h) OD” value ([3]; 4 g) was 11.45 OD, the “Maximum Cell Density % Control” value ([3]; 4 g) was 105.48% and the “Maximum Cell Density OD” value ([3]; 4 g) was 11.65 OD. For the same compound, the “Maximum Cell Density Time” value ([3]; 4 g) was 48 h, the Time to completion ([3]; 4 g) was 48 h and the “Volumetric Productivity Average” value ([3]; 4 g) was 0.940 grams ethanol/(liter)(hour). For the same compound, the “Volumetric Productivity Average % Control” value ([3]; 4 g) was 104.76%, the “Volumetric Productivity Maximum” value ([3]; 4 g) was 1.166 grams ethanol/(liter)(hour) and the “Volumetric Productivity Maximum % Control” value ([3]; 4 g) was 101.27%.
For `O=C(O)CCC(=O)O` [Succinate, succinate], the “Ethanol Production Maximum” value ([1]; 1% CSL+xylose) was 35.00 g/L, the “Ethanol Production Maximum % Control” value ([1]; 1% CSL+xylose) was 116.35% and the Ethanol yield ([1]; 1% CSL+xylose) was 0.360 grams of ethanol/grams of added sugar. The “Initial Growth (OD @ 24 h) % Control” value ([1]; 1% CSL+xylose) was 103.40%, the “Initial Growth (OD @ 24 h) OD” value ([1]; 1% CSL+xylose) was 2.11 OD and the “Maximum Cell Density % Control” value ([1]; 1% CSL+xylose) was 124.13%. The “Maximum Cell Density OD” value ([1]; 1% CSL+xylose) was 3.12 OD, the “Maximum Cell Density Time” value ([1]; 1% CSL+xylose) was 96 h and the Time to completion ([1]; 1% CSL+xylose) was >96 h. For the same compound, the “Volumetric Productivity Average” value ([1]; 1% CSL+xylose) was 0.365 grams ethanol/(liter)(hour), the “Volumetric Productivity Average % Control” value ([1]; 1% CSL+xylose) was 116.35% and the “Volumetric Productivity Maximum” value ([1]; 1% CSL+xylose) was 0.400 grams ethanol/(liter)(hour). The “Volumetric Productivity Maximum % Control” value ([1]; 1% CSL+xylose) was 108.536%, the “Ethanol Production Maximum” value ([2]; 1% CSL+glucose) was 30.13 g/L and the “Ethanol Production Maximum % Control” value ([2]; 1% CSL+glucose) was 81.46%. The Ethanol yield ([2]; 1% CSL+glucose) was 0.310 grams of ethanol/grams of added sugar, the “Initial Growth (OD @ 24 h) % Control” value ([2]; 1% CSL+glucose) was 100.47% and the “Initial Growth (OD @ 24 h) OD” value ([2]; 1% CSL+glucose) was 2.69 OD. For the same compound, the “Maximum Cell Density % Control” value ([2]; 1% CSL+glucose) was 98.99%, the “Maximum Cell Density OD” value ([2]; 1% CSL+glucose) was 2.66 OD and the “Maximum Cell Density Time” value ([2]; 1% CSL+glucose) was 72 h. The Time to completion ([2]; 1% CSL+glucose) was 96 h, the “Volumetric Productivity Average” value ([2]; 1% CSL+glucose) was 0.314 grams ethanol/(liter)(hour) and the “Volumetric Productivity Average % Control” value ([2]; 1% CSL+glucose) was 81.46%. The “Volumetric Productivity Maximum” value ([2]; 1% CSL+glucose) was 0.511 grams ethanol/(liter)(hour) and the “Volumetric Productivity Maximum % Control” value ([2]; 1% CSL+glucose) was 99.45%.
